Laboratory results published in US20250152719A1, “FUSED IMIDE DERIVATIVE” (Chia Tai Tianqing Pharmaceutical Group Co., Ltd., priority 2021, published 2025).

What was measured:
BTK = BTK (Homo sapiens (Human), UniProt Q06187); experiment: BTK degradation in OCI-LY10 cells (Total-BTK HTRF kit); format: cell-based; settings: 24 (or 6) h incubation; for DC50: DC50 = concentration when degradation rate reaches 50%, read-out: OCI-LY10 cell BTK degradation DC50; for Dmax / BTK degradation in OCI-LY10 cells Dmax: maximum degradation rate
Protocol: The detection was carried out using the Total-BTK Kits (cisbio, 63ADK064PEH), and 4× Supplemented Lysis buffer was prepared using the Blocking reagent stock solution (100×) and Lysis buffer stock solution (4×). Premixed antibody solutions were prepared using the Detection buffer, Total-BTK d2 antibody, and Total-BTK Eu Cryptate antibody.
OCI-LY10 cells in a good growth state were collected and added to a centrifuge tube, adjusted to a cell density of 4.17×10^6 cells/mL, and seeded in a 384-well plate (12 μL/well). The cells were incubated overnight in a cell incubator. Compounds were added using a nanoliter pipettor such that the final concentrations of the compounds were 100 nM-0.098 nM; the addition was performed in duplicate, and meanwhile, a control was set. After another 24 (or 6) h of incubation in the cell incubator, the 4× Supplemented Lysis buffer was added at 4 μL/well to lyse the cells. After the cells were shaken for 40 min at room temperature, the Premixed antibody solutions were added at 4 μL/well, and the cells were left to stand overnight at room temperature. Fluorescence values of the cells were detected at 665 nm/620 nm using an Envision microplate reader, the four-parameter analysis was performed, the dose-response curves were fit, and DC50 (the concentration of the drug when the degradation rate reaches 50%) and Dmax (the maximum degradation rate) were calculated.

[1] = In vitro liver microsomal stability, mouse; settings: 0.5 mg/mL microsomes, NADPH, 37° C., 1 h
Protocol: Liver microsome incubation samples were prepared by mixing a PBS buffer (pH 7.4), a liver microsome solution (0.5 mg/mL), a test compound, and an NADPH+MgCl2 solution and incubated at 37° C. and 300 rpm for 1 h. Zero-hour samples were prepared by mixing a PBS buffer (pH 7.4), a liver microsome solution (0.5 mg/mL), and a test compound. An acetonitrile solution containing an internal standard was added to the samples, and supernatants were prepared by protein precipitation, diluted, and then assayed by LC/MS/MS.

OCI-LY10 cells = experiment: Inhibitory activity on OCI-LY10 cell proliferation (CCK-8); format: cell-based
Protocol: (§1) OCI-LY10 cells in a good growth state were collected and added to a centrifuge tube, adjusted to a cell density of 1×10^5 cells/mL, and seeded in a 96-well plate (100 μL/well). The cells were incubated overnight in a cell incubator. Compounds were added using a nanoliter pipettor such that the final concentrations of the compounds were 5000 nM-0.31 nM; the addition was performed in duplicate, and meanwhile, a control was set. After another 72 h of incubation in the cell incubator, 10 μL of CCK-8 (CK04, PP799) was added. After 2.5 h of incubation in the cell incubator, absorbance values were detected at 450 nm using an Envision microplate reader, the four-parameter analysis was performed, the dose-response curves were fit, and IC50 was calculated.

TMD8-BTK(C481S) cells = experiment: Inhibitory activity on TMD8-BTK(C481S) cell proliferation (CCK-8); format: cell-based; settings: 72 h incubation
Protocol: as §1, with “TMD8-BTK(C481S)” for “OCI-LY10”, “8×10^4” for “1×10^5”, “4” for “2.5”

[2] = test system: OCI-LY10-BTK(C481S) cells; experiment: Inhibitory activity on OCI-LY10-BTK(C481S) cell proliferation (CCK-8); format: cell-based; settings: 72 h incubation, IC50 per method, unit inferred
Protocol: OCI-LY10(C481S) cells in the logarithmic growth phase were collected and added to a centrifuge tube, adjusted to a cell density of 5×10^4 cells/mL, and seeded in a 96-well plate (100 μL/well). Meanwhile, compounds were added using a nanoliter pipettor such that the final concentrations of the compounds were 5000 nM-0.31 nM; the addition was performed in duplicate, and meanwhile, a control was set. After another 72 h of incubation in the cell incubator, the detection reagent CCK-8 (manufacturer: Dojindo Laboratories, Beijing; 10 μL/well) was added. After 3 h of incubation in the cell incubator, absorbance values were detected at 450 nm using a PerkinElmer Envision microplate reader, the four-parameter analysis was performed, the dose-response curves were fit, and IC50 was calculated.

Mouse pharmacokinetics = format: in vivo, ICR mice
Protocol: ICR mice weighing 18-22 g were randomized into groups of 9 after 3-5 days of acclimatization and then intragastrically given the test compound solution at a dose of 10 mg/kg. Plasma samples to be tested were prepared by taking blood from the orbit at time points of 15 min, 30 min, 1 h, 2 h, 3 h, 4 h, 6 h, 8 h, 10 h, and 24 h. 20 μL of each plasma sample to be detected and a standard curve sample were taken, and an acetonitrile solution containing an internal standard was added. […] Pharmacokinetic parameters were fitted using a non-compartmental model (see Table 5).

TMD-8 xenograft tumors = experiment: In vivo drug efficacy, TMD-8 mouse subcutaneous xenograft tumors; design: species or system NOD-SCID mice; settings: 30 mg/kg, qd, i.g.; for TGI d 17: 16 days, tumor weight on day 17; for TV on d 0 Mean ± SD: day 0 (baseline at grouping); for TV on d 12 Mean ± SD: day 12; for TV on d 15 Mean ± SD: day 15
Protocol: TMD-8 mouse subcutaneous xenograft tumors: TMD-8 (WT) cells at a concentration of 1×10^8/mL were inoculated under aseptic conditions into the right side armpit of NOD-SCID mice at 0.1 mL/mouse. After subcutaneous grafting, the animals were divided into groups with 6 animals in each group when the tumor volume reached about 188 mm^3 (or 200 mm^3):
model group: vehicle, 6 mice; compound administration groups: 30 mg/kg, qd, i.g., 6 mice.
The vehicle or the test compound was intragastrically given at a volume of 4 mL/kg, once daily for 16 consecutive days. The tumor volume was measured 2-3 times a week, and meanwhile, the mice were weighed and the data were recorded; the general behaviors of the animals were observed every day. After all dosing was complete, the animals were sacrificed on day 17, and the tumors were removed and weighed.
The tumor volume and the tumor growth inhibition were calculated using the following formulae:
Tumor volume (TV)=(Length×Width^2)/2.
Tumor growth inhibition (TGI)=(1−tumor weight of treatment group/tumor weight of model group)×100%.

[3] = Homo sapiens, OCI-Ly10, 72 h incubation

Sequence of BTK (Q06187 whole entry): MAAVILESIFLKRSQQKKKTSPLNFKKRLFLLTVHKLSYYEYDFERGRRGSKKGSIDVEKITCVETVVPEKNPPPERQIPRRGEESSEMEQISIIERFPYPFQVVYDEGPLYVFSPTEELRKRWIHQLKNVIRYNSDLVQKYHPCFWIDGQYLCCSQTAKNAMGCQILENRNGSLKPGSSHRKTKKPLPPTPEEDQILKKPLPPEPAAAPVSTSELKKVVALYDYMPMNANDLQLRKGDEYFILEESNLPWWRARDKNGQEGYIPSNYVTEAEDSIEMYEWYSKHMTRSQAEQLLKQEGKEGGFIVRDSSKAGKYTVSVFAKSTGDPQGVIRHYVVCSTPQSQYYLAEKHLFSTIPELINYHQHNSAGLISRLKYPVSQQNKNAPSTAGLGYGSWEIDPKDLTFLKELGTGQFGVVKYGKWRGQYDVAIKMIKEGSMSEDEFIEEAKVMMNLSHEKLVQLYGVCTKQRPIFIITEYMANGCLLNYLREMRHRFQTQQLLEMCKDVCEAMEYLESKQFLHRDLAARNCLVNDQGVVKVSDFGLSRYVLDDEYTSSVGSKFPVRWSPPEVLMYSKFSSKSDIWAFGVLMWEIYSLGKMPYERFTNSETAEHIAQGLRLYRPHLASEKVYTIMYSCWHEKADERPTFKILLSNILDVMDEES

Structure (SMILES): CN1CCN([C@@H]2CCCN(c3cnc(C(N)=O)c(Nc4ccc(C5CCN(C[C@@H]6CCC(c7ccc8c(C9CCC(=O)NC9=O)noc8c7)C6)CC5)cc4)n3)C2)C1=O (stereo partly drawn) [Compound 7]
- DC50 (BTK; OCI-LY10 cells): < 0.098 nM
- Dmax (BTK; OCI-Ly10, OCI-LY10 cells): 99%
- Mouse liver microsome Residuals at 60 min [1]: 42.7%
- IC50 (OCI-LY10 cells; [3]): < 0.31 nM

Structure (SMILES): CN1CCN([C@@H]2CCCN(c3cnc(C(N)=O)c(Nc4ccc(C5CCN(CC6CCN(c7ccc8c(C9CCC(=O)NC9=O)noc8c7)CC6)CC5)cc4)n3)C2)C1=O (stereo partly drawn) [Compound 8]
- IC50 (TMD8-BTK(C481S) cells; 72 h): 6.9 nM
- DC50 (BTK; OCI-LY10 cells): < 0.098 nM
- Dmax (BTK; OCI-Ly10, OCI-LY10 cells): 99%
- Mouse liver microsome Residuals at 60 min [1]: 54.7%
- IC50 (OCI-LY10 cells; [3]): < 0.31 nM

Structure (SMILES): CN1CCN([C@@H]2CCCN(c3cnc(C(N)=O)c(Nc4ccc(C5CCN(C[C@@H]6CCC(c7cc8onc(C9CCC(=O)NC9=O)c8c8cc[nH]c78)C6)CC5)cc4)n3)C2)C1=O (stereo partly drawn) [Compound 13]
- DC50 (BTK; OCI-LY10 cells): < 0.098 nM
- BTK degradation in OCI-LY10 cells Dmax (BTK; OCI-LY10 cells): 100%
- IC50 [2]: < 0.31 nM
- Mouse liver microsome Residuals at 60 min [1]: 56.41%
- IC50 (OCI-LY10 cells; 72 h incubation): < 0.31 nM

Structure (SMILES): CN1CCN([C@@H]2CCCN(c3cnc(C(N)=O)c(Nc4ccc(C5CCN(C[C@@H]6CCC(c7cc8[nH]ccc8c8c(C9CCC(=O)NC9=O)noc78)C6)CC5)cc4)n3)C2)C1=O (stereo partly drawn) [Compound 14]
- DC50 (BTK; OCI-LY10 cells): < 0.098 nM
- BTK degradation in OCI-LY10 cells Dmax (BTK; OCI-LY10 cells): 100%
- IC50 [2]: < 0.31 nM
- Mouse liver microsome Residuals at 60 min [1]: 62.41%
- IC50 (OCI-LY10 cells; 72 h incubation): < 0.31 nM

Structure (SMILES): CN1CCN([C@@H]2CCCN(c3cnc(C(N)=O)c(Nc4ccc(N5CCC(CN6CCc7c(ccc8c(C9CCC(=O)NC9=O)noc78)C6)CC5)cc4)n3)C2)C1=O (stereo partly drawn) [Compound 28]
- Dmax (BTK; OCI-Ly10, OCI-LY10 cells): > 90%
- IC50 ([2]; 72 h): 0.29 nM
- IC50 (OCI-LY10 cells; [3]): < 0.31 nM

Structure (SMILES): CN1CCN([C@@H]2CCCN(c3cnc(C(N)=O)c(Nc4ccc(N5CCC(CN6Cc7cc8onc(C9CCC(=O)NC9=O)c8cc7C6)CC5)cc4)n3)C2)C1=O (stereo partly drawn) [Compound 29]
- Dmax (BTK; OCI-Ly10, OCI-LY10 cells): > 90%
- IC50 ([2]; 72 h): 0.35 nM
- IC50 (OCI-LY10 cells; [3]): < 0.31 nM

Structure (SMILES): CN1CCN([C@@H]2CCCN(c3cnc(C(N)=O)c(Nc4ccc(N5CCC(N6Cc7ccc8c(C9CCC(=O)NC9=O)noc8c7C6)CC5)cc4)n3)C2)C1=O (stereo partly drawn) [Compound 30]
- Dmax (BTK; OCI-LY10 cells): > 90%
- IC50 [2]: 0.44 nM
- IC50 (OCI-LY10 cells; [3]): < 0.31 nM

Structure (SMILES): CN1CCN([C@@H]2CCCN(c3cnc(C(N)=O)c(Nc4ccc(N5CCC(N6CCc7ccc8c(C9CCC(=O)NC9=O)noc8c7C6)CC5)cc4)n3)C2)C1=O (stereo partly drawn) [Compound 34]
- DC50 (BTK; OCI-LY10 cells): < 0.098 nM
- Dmax (BTK; OCI-Ly10, OCI-LY10 cells): 97%
- IC50 ([2]; 72 h): 0.19 nM
- IC50 (OCI-LY10 cells; [3]): < 0.31 nM

Structure (SMILES): CN1CCN([C@@H]2CCCN(c3cnc(C(N)=O)c(Nc4ccc(N5CCC(N6CCc7c(ccc8c(C9CCC(=O)NC9=O)noc78)C6)CC5)cc4)n3)C2)C1=O (stereo partly drawn) [Compound 35]
- Dmax (BTK; OCI-Ly10, OCI-LY10 cells): > 90%
- IC50 ([2]; 72 h): 0.12 nM
- IC50 (OCI-LY10 cells; [3]): < 0.31 nM

Structure (SMILES): CN1CCN([C@@H]2CCCN(c3cnc(C(N)=O)c(Nc4ccc(N5CCC(N6CCc7ccc8c(C9CCC(=O)NC9=O)noc8c7CC6)CC5)cc4)n3)C2)C1=O (stereo partly drawn) [Compound 36]
- DC50 (BTK; OCI-LY10 cells): < 0.098 nM
- Dmax (BTK; OCI-Ly10, OCI-LY10 cells): 95%
- IC50 ([2]; 72 h): 0.024 nM
- IC50 (OCI-LY10 cells; [3]): < 0.31 nM

Structure (SMILES): CN1CCN([C@@H]2CCCN(c3cnc(C(N)=O)c(Nc4ccc5c(c4)CCN(CC4Cc6ccc7c(C8CCC(=O)NC8=O)noc7c6C4)C5)n3)C2)C1=O (stereo partly drawn) [Compound 41]
- BTK degradation in OCI-LY10 cells Dmax (BTK; OCI-LY10 cells): >90%
- IC50 [2]: 0.34 nM
- IC50 (OCI-LY10 cells; [3]): < 0.31 nM

Structure (SMILES): CN1CCN([C@@H]2CCCN(c3cnc(C(N)=O)c(Nc4ccc(C5CCN(CC6Cc7ccc8c(C9CCC(=O)NC9=O)noc8c7C6)CC5)cc4)n3)C2)C1=O (stereo partly drawn) [Compound 90]
- IC50 (TMD8-BTK(C481S) cells): 1.2 nM
- BTK degradation in OCI-LY10 cells Dmax (BTK; OCI-LY10 cells): >90%
- AUC (Mouse pharmacokinetics; Mouse i.g. 10 mpk): 18.944 µg·h/mL
- Cmax (Mouse pharmacokinetics; Mouse i.g. 10 mpk): 2.55 µg/mL
- F (Mouse pharmacokinetics; Mouse i.g. 10 mpk): 21.0%
- t1/2 (Mouse pharmacokinetics; Mouse i.g. 10 mpk): 3 h
- AUC (Mouse pharmacokinetics; Mouse i.v. 1 mpk): 8.882 µg·h/mL
- Cl (Mouse pharmacokinetics; Mouse i.v. 1 mpk): 0.11 L/h/kg
- t1/2 (Mouse pharmacokinetics; Mouse i.v. 1 mpk): 2.7 h
- Mouse liver microsome Residuals at 60 min [1]: 54.63%
- IC50 (OCI-LY10 cells; 72 h incubation): < 0.31 nM

Structure (SMILES): CN1CCN([C@@H]2CCCN(c3cnc(C(N)=O)c(Nc4ccc(C5CCN(CC6CN(c7cc8onc(C9CCC(=O)NC9=O)c8c8ccccc78)C6)CC5)cc4)n3)C2)C1=O (stereo partly drawn) [Compound 96]
- Dmax (BTK; OCI-Ly10, OCI-LY10 cells): > 90%
- IC50 ([2]; 72 h): 0.31 nM
- IC50 (OCI-LY10 cells; [3]): < 0.31 nM

Structure (SMILES): NC(=O)c1ncc(N2CCCCC2)nc1Nc1ccc(C2CCN(C[C@@H]3CC[C@@H](n4ccc5c6c(C7CCC(=O)NC7=O)noc6ccc54)C3)CC2)cc1 (stereo partly drawn) [Compound 104]
- IC50 (TMD8-BTK(C481S) cells; 72 h): 16 nM
- TGI d 17 (TMD-8 xenograft tumors): 96.0%
- TV on d 0 Mean ± SD (TMD-8 xenograft tumors): 226 ± 27 mm^3
- TV on d 12 Mean ± SD (TMD-8 xenograft tumors): 286 ± 77 mm^3
- TV on d 15 Mean ± SD (TMD-8 xenograft tumors): 269 ± 61 mm^3

Structure (SMILES): NC(=O)c1ncc(N2CCCCC2)nc1Nc1ccc(C2CCN(C[C@@H]3CC[C@H](n4ccc5c6c(C7CCC(=O)NC7=O)noc6ccc54)C3)CC2)cc1 (stereo partly drawn) [Compound 105]
- IC50 (TMD8-BTK(C481S) cells; 72 h): 6.9 nM
- TGI d 17 (TMD-8 xenograft tumors): 95.4%
- TV on d 0 Mean ± SD (TMD-8 xenograft tumors): 226 ± 28 mm^3
- TV on d 12 Mean ± SD (TMD-8 xenograft tumors): 253 ± 36 mm^3
- TV on d 15 Mean ± SD (TMD-8 xenograft tumors): 229 ± 49 mm^3
